Two molecules from PMC6773697, “Antileukemic activity of novel adenosine derivatives” (Scientific Reports, 2019) can be followed below.

Common to all, as to format: cell-based, human
Experiment [1] has as its system dCK in HL-60 cells. The experiment can be described thus: Deoxycytidine kinase activity, HL-60. The conditions noted are these: HL-60, 24 h incubation. The protocol:
Deoxycytidine kinase activity was measured in accordance with the manufacturer’s protocol. The cells, at final concentration were plated at 1 × 10^6 cells per 24-well plates and cultured with the tested compounds for 24 h. Some cells were preincubated with an ATR kinase inhibitor (VE-821) for 1 h at 37 °C before adding the tested compounds. After drug treatment, the cells were washed with PBS and resuspended in an ice-cold cytosol extraction buffer containing 1 mM phenylmethylsulfonyl fluoride (PMSF) and a protease inhibitor cocktail. The cell lysate was centrifuged at 10,000 × g for 30 min at 4 °C. The protein concentration was determined using the Bradford method. The supernatant (cytosolic fraction) was collected and stored at −80 °C. The clarified cytoplasm extracts, dCK standards, and blank control were added to the appropriate microtiter plate wells with a biotin-conjugated polyclonal antibody prepared specifically for dCK. Avidin conjugated to horseradish peroxidase (HRP) was added to each microplate well and incubated. Then, a TMB substrate solution was added to the plate. […] The enzyme-substrate reaction was terminated by addition of a sulfuric acid solution. The color change was measured spectrophotometrically at a wavelength of 450 nm using a microplate reader (BioTek).

The test system of experiment [2] is HL-60 cells. The experiment can be described thus: Alkaline comet assay, HL-60. The conditions noted are these: HL-60, 48 h. The method, then:
(§1) Single cell gel electrophoresis (comet assay) was used to detect alkali labile sites, single and double DNA strand breaks, and cross-links induced by genotoxic agents. After electrophoresis and gel staining with 4,6-diamidino-2-phenylindole (DAPI), the released DNA was visible under a fluorescence microscope as a characteristic comet tail. The cells were plated on 24-well plates (20,000 cells/mL) and treated with CLA, CLA-FMOR, CLA-FPIP, or CLA-FPIR at the indicated concentrations for 2, 24, and 48 h at 37 °C. Some cells were preincubated with an ATR kinase inhibitor (VE-821) for 1 h at 37 °C before adding the tested compounds. Next, cells were collected into Eppendorf tubes and rinsed with PBS. Then, cells were suspended in 0.75% low melting point (LMP) agarose dissolved in PBS (pH 7.4) and placed on microscope slides precoated with 0.5% normal melting point (NMP) agarose. […] The slides were stored in a wet chamber at 4 °C and analyzed under a fluorescence microscope. Fifty randomly selected cells from each slide were measured using image analysis (Nikon, Japan) attached to a COHU 4910 video camera, which was equipped with a UV-1 filter block consisting of an excitation filter (359 nm) and a barrier filter (461 nm) connected to the image analysis system Lucia-Comet v. […] In the samples preincubated with VE-821, the level of DNA damage associated with the ATR kinase was determined.

In experiment [3] the test system is MOLT-4 cells. The experiment can be described thus: Comet assay with proteinase K post-treatment (DNA-protein cross-links), MOLT-4. The conditions noted are these: MOLT-4, 24 h. The protocol: as §1, with “determined. […]” for “determined.”
In experiment [4] the test system is caspase-3/7 in HL-60 cells. The experiment can be described thus: Caspase 3/7 assay, HL-60. The conditions noted are these: HL-60, 48 h. The protocol: (§2) The activities of caspases-3 and −7 were estimated with CellEvent™ Caspse-3/7 Green Detection Reagent (Thermo Fisher Scientific) according to the manufacturer’s protocol. The cells were seeded on 96-well plates (15 × 10^3/ well) and 24 h later, incubated with the appropriate drugs for 24 h or 48 h. The cells were fixed by adding a final concentration of 4% paraformaldehyde solution (10 min, room temperature). Cells were labeled with CellEvent™Caspase-3/7 Green Detection Reagent (5 µM), followed by Hoechst 33342 (5 µg/ml) for 15 minutes in complete medium3. Caspase-3/7 Green Detection Reagent was diluted into PBS with 5% FBS to avoid fluorescence background. After activation of caspase-3/7 in apoptotic cells, the DEVD peptide was cleaved, enabling the dye to bind DNA, which produced a bright, fluorogenic response with absorption/emission maxima of 502/530 nm according with manufacture protocol. Fluorescence intensity was measured using a Fluoroskan Ascent FL plate reader (Labsystem, Sweden). Cysteine protease activity was expressed as a ratio of fluorescence of the drug-treated samples to the corresponding untreated controls (taken as 100%). In some experimental variants, cells were preincubated for 1 h with VE-821 (10 µM) or Z-FA-FMK (caspas-3 inhibitor, 0.5 µM) to confirm that the fluorescence observed in both control and drug-treated cells was due to the presence of caspase-3/7 in samples. The caspase 3/7 signal was normalized to the Hoechst 33342 staining intensity to account for differences in cell seeding density (description in: Intracellular calcium assay section).

Experiment [5] deals with caspase-3/7 in THP-1 cells. Description: Caspase 3/7 assay, THP-1. The conditions noted are these: THP-1, 48 h. The protocol: as §2, with “After activation of caspase-3/7 in apoptotic cells, the DEVD peptide was cleaved, enabling the dye to bind DNA, which produced a bright, fluorogenic response with absorption/emission maxima of 502/530 nm according with manufacture protocol.” left out, “The caspase 3/7 signal was normalized to the Hoechst 33342 staining intensity to account for differences in cell seeding density (description in: Intracellular calcium assay section).” left out

Take `OC[C@H]1O[C@@H](n2cnc3c(N=CN4CCOCC4)nc(Cl)nc32)C[C@@H]1O` [CLA-FMOR, [6-deamino-6-(N′, N′-3′-oxa-1′, 5′-pentamethyleneformamidine)] cladribine]: the dCK activity result in experiment [1] is reported as “highest dCK activity”. For the same molecule, the “DNA damage relative to that induced by the unmodified drug” value in experiment [2] was “two-fold higher”. Further, in experiment [2] (130 nM), the “DNA fragmentation, percentage of the DNA in the comet tail” value came out at 24%. For the same molecule, the “percentage of DNA in the comet tail after proteinase K” value in experiment [3] was “increase in the percentage of DNA in the comet tail”.

Consider `OC[C@H]1O[C@@H](n2cnc3c(N=CN4CCCC4)nc(Cl)nc32)C[C@@H]1O` [CLA-FPIR, [6-deamino-6-(N′, N′-l′, 4′-tetramethyleneformamidino)] cladribine], for which the caspase-3/7 level result in experiment [4] and in experiment [5] was “highest changes” each time.
